Experimental data published in ChEMBL document CHEMBL3421583, “Withanolides with antibacterial activity from Nicandra john-tyleriana” (J Nat Prod, 2015).
Active and inactive are the calls of the source.

What was measured:
Assay type in all cases: functional, organism-based
Bacillus cereus [1] = test: Antibacterial activity against Bacillus cereus at 2000 ppm after 24 hrs by bioautographic TLC assay
Bacillus cereus [2] = test: Antibacterial activity against Bacillus cereus at 2000 ppm after 24 to 48 hrs by disk diffusion method
Bacillus cereus [3] = test: Bactericidal activity against Bacillus cereus BAC1 at 1000 ppm after 24 hrs
Bacillus cereus [4] = test: Bacteriostatic activity against Bacillus cereus BAC1 at 750 ppm after 24 hrs

Measured: Activity

C[C@]12CC[C@H]3[C@@H](C[C@H]4O[C@]45CC=CC(=O)[C@]35C)[C@@H]1C[C@@H](O)[C@@H]2[C@@H]1C[C@]2(C)C[C@H]1OC(=O)[C@]2(C)O
active: Bacillus cereus [1] | Bacillus cereus [2]

CC1=C(CO)C(=O)O[C@@H]([C@@H](C)[C@H]2C(=O)C[C@H]3[C@@H]4C[C@H]5O[C@]56CC=CC(=O)[C@]6(C)[C@H]4CC[C@]23C)C1
active: Bacillus cereus [3] | Bacillus cereus [1] | Bacillus cereus [4] | Bacillus cereus [2]
